Target: T1, Dimer of Gag-Pol polyprotein [501-599,Q508K,L534I,L564I,C568A,C596A] (Human immunodeficiency virus 1, UniProt P03367, C568A/C596A/L534I/L564I/Q508K)
T1 construct: 501-599
Test: Protease Inhibition Assay
Details: pH 6.4; 25 °C
Procedure: The Ki values were determined by substrate cleavage assay using fluorogenic substrate, 2-(aminobenzoyl)-Thr-Ile-Nle-Phe(p-NO2)-Gln-Arg-NH2. A standard curve relating changes in fluorescent intensity to changes in concentration of product was used to convert fluorescent changes into molar velocities. The amount of cleavage was determined by HPLC.

Structure (SMILES)	Ki [nM]
CC(C)CN(C[C@@H](O)[C@H](Cc1ccccc1)NC(=O)O[C@@H]1C[C@@H]2CCO[C@@H]2C1)S(=O)(=O)c1ccc(N)cc1 [(3aS,5R,6aR)-hexahydro-2H-cyclopenta[b]furan-5-yl N-[(2S,3R)-4-[(4-aminobenzene)(2-methylpropyl)sulfonamido]-3-hydroxy-1-phenylbutan-2-yl]carbamate]	0.14
CC(C)CN(C[C@@H](O)[C@H](Cc1ccccc1)NC(=O)O[C@H]1C[C@H]2CCC[C@H]2C1)S(=O)(=O)c1ccc(CO)cc1 [(2R,3aR,6aS)-octahydropentalen-2-yl N-[(2S,3R)-3-hydroxy-4-{[4-(hydroxymethyl)benzene](2-methylpropyl)sulfonamido}-1-phenylbutan-2-yl]carbamate]	5.3

Source: BindingDB's records for doi:10.1021/jm060561m (Purdue University, 2006)
